Measured values published in patent publication US20060264455A1 (priority 2005, published 2006).

What was measured:
motor skills on rotorod = experiment: Toxicity Model (TOX), rotorod, mice; type: in vivo; details: for N/F (mice showing an effect / mice tested), TOX: ip; for Behavioral motor impairment, share of mice tested: po
Source text: (§1) To investigate the neurotoxicity levels of the huperzine compounds, the Toxicity Model (TOX) using a rotorod is employed. The animals (e.g., mice) were trained to stand on an accelerating rotorod rotating at 10 rev min^−1 with a diameter of 3.2 cm. The trained animal can be given the huperzine compound at various doses and the effect of huperzine on their motor skills can be determined. The dose at which the animals fell off the rotorod is the toxic dose.
(§2) The neurotoxicity of huperzine was tested in the rotorod test. The mice were trained to stand on an accelerating rotorod rotating at 10 rev min^−1 with a diameter of 3.2 cm. The trained animals were given the huperzine at various doses and the effect of huperzine on their motor skills was determined. The dose at which the animals fell off the rotorod was the toxic dose.

[1] = Toxicity Model (TOX), rotorod, mice; type: in vivo; details: male, CFI, mouse, in vivo, ip; mice
Source text: as §1, §2

C/C=C1\[C@H]2C=C(C)C[C@]1(N)c1ccc(=O)[nH]c1C2 [Huperzine A]
Toxicity (motor skills on rotorod; 5 mg/kg I.P., within 30 minutes post administration): toxic in all animals | Behavioral impairment (motor skills on rotorod; mouse, in vivo): marked motor impairment | N/F (mice showing an effect / mice tested), TOX (motor skills on rotorod; mouse, in vivo, 0.1 mg/kg, 4 h): 0/4 | N/F (mice showing an effect / mice tested), TOX (motor skills on rotorod; mouse, in vivo, 0.3 mg/kg, 4 h): 0/4 | N/F (mice showing an effect / mice tested), TOX (motor skills on rotorod; mouse, in vivo, 1 mg/kg, 0.5 h): 4/4 | N/F (mice showing an effect / mice tested), TOX (motor skills on rotorod; mouse, in vivo, 1 mg/kg, 4 h): 2/2 | N/F (mice showing an effect / mice tested), TOX (motor skills on rotorod; mouse, in vivo, 3 mg/kg, 0.5 h): 8/8 | N/F (mice showing an effect / mice tested), TOX (motor skills on rotorod; mouse, in vivo, 3 mg/kg, 4 h): 4/4 | N/F (mice showing an effect / mice tested), TOX (motor skills on rotorod; mouse, in vivo, 10 mg/kg, 0.5 h): 4/4 | N/F (mice showing an effect / mice tested), TOX (motor skills on rotorod; mouse, in vivo, 10 mg/kg, 4 h): 2/2 | N/F (mice showing an effect / mice tested), TOX (motor skills on rotorod; mouse, in vivo, 30 mg/kg, 0.5 h): 4/4 | N/F (mice showing an effect / mice tested), TOX (motor skills on rotorod; mouse, in vivo, 100 mg/kg, 0.5 h): 8/8 | N/F (mice showing an effect / mice tested), TOX (motor skills on rotorod; mouse, in vivo, 300 mg/kg, 0.5 h): 4/4 | Behavioral motor impairment, share of mice tested (motor skills on rotorod; mouse, in vivo, 2 mg/kg): 75% | Behavioral motor impairment, share of mice tested (motor skills on rotorod; mouse, in vivo, 4 mg/kg): 100% | TD50 [1]: 0.83 mg/kg
